From patent publication US8420637B2, “Abnormal cannabidiols as agents for lowering intraocular pressure” (Allergan, Inc., priority 2006, dated 2013)

Test system: Laser-induced unilaterally ocular hypertensive Cynomolgus monkeys
Assay: Intraocular pressure by applanation pneumatonometry in conscious animals
Assay type: in vivo
Parameters: key: *: one star indicates no potency; ***: three stars indicates a very potent compound
Conditions: topical to one eye, dosed once, IOP measured over the course of 24 hours; female ocular hypertensive Cynomolgus monkeys
Protocol: Intraocular pressure was measured by applanation pneumatonometry in conscious animals. The test compound was administered topically to one eye while vehicle was given to the fellow eye in a masked fashion. Laser-induced unilaterally ocular hypertensive Cynomolgus monkeys (females) were dosed once and the IOP was measured over the course of 24 hours.
The results are shown in the Table, below wherein the stars indicating the potency of the compound. That is, one star indicates no potency, three stars indicates a very potent compound.

With C=C(C)C1CCC(C)=CC1c1c(O)cc(O)cc1Cl (stereo not drawn) [Example 5, 5-Chloro-4-(6-Isopropenyl-3-methylcyclohex-2-enyl)benzene-1,3-diol] the Efficacy was “***”.
For CC1CC(=O)CC(=O)N1C1CCCCC1 (stereo not drawn) [Example 20, 1-Cyclohexyl-6-methylpiperidine-2,4-dione], the Efficacy was “***”.
For Oc1cc(O)c(C2CCCCC2)c(Cl)c1 [9 (b), 5-Chloro-4-cyclohexylbenzene-1,3-diol], the Efficacy was “***”.
